EP0768085A1, “ANTIBACTERIAL AGENT” (DAIICHI PHARMACEUTICAL CO., LTD., priority 1994, dated 1996)
Converted amounts (≈) assume the structure as drawn.

Legend:
Assay type in all cases: cell-based
Pasteurella from fish = experiment: Antibacterial activity (IC), agar as in Example 8, media with 1.5% NaCl, 25°C (Example 20, Tables 53-55); conditions: for MIC: Pasteurella piscicida KP94-02
Method: (§1) The antibacterial action was evaluated by the inhibitory concentration (hereinafter abbreviated as IC) at which propagation of the bacteria cultured at 37°C for 18 hours was inhibited. Inhibition was determined by the turbidity of the medium. The expressions "IC≤100", "≤10", and "≤1" indicate that MIC-equivalent values obtained at the succesive […] dilution of the sample are 100-10 µg/ml, 10-1 µg/ml, and not more than 1 µg/ml, respectively. […] (In the subsequent Examples, the same rule applies correspondingly.) Table 39
(§2) A suitable amount of a sample was dissolved in dimethylsulfoxide (DMSO), after which the resulting solution was diluted with the same amount of sterilized distilled water to prepare a bulk sample of 1,000 µg/ml. Separately, a bacterial liquid for the test (methicillin-resistant Staphylococcus aureus (MRSA) isolated from humans) which had been cultured in Mueller-Hinton broth (product of DIFCO) was prepared and inoculated to a Mueller-Hinton agar (product of DIFCO) containing the sample so that the final inoculation amount of 10^6 CFU/ml was achieved. The final concentrations of the samples were 100, 10, and 1 µg/ml.
(§3) After culturing at 37°C for 18 hours, the antibacterial activity was evaluated in terms of IC in a manner similar to that described in Example 4.
(§4) In a manner similar to that described in Example 8, antibacterial activity of a variety of ketonitrile derivatives shown in Tables 53-55 was measured. The bacteria used for the test were Enterococcus and Pasteurella from fish. The culture conditions were such that the media contained 1.5% NaCl, and the culture temperature was 25°C.

Enterococcus from fish = experiment: as above; conditions: for MIC: Enterococcus Seriolicida SE94-002
Method: as §1, §2, §3, §4

[1] = tested on: Staphylococcus aureus (209-P); experiment: Antibacterial activity (IC), agar as in Example 8 (Example 15, Table 48); conditions: 18 h
Method: as §1, §2, §3
The bacterium used for the test was Staphylococcus aureus (209-P).

[2] = tested on: Streptococcus aureus (TI-1); experiment: Antibacterial activity (IC), agar as in Example 8 (Example 16, Table 49); conditions: 18 h
Method: as §1, §2, §3
In a manner similar to that described in Example 8, antibacterial activity of the invention compound was determined. The bacterium used for the test was […] aureus (TI-1).

[3] = tested on: methicillin-resistant Staphylococcus aureus (MRSA) from humans; experiment: Antibacterial activity (IC), agar as in Example 8 (Example 19, Table 52); conditions: 18 h
Method: as §1, §2, §3
In a manner similar to that described in Example 8, antibacterial activity of a variety of ketonitrile derivatives shown in Table 52 was measured. The bacterium used for the test was methicillin-resistant Staphylococcus aureus (MRSA) from humans.

[4] = tested on: Pasteurella multocida (Kobe-6); experiment: Antibacterial activity (IC), agar as in Example 8 (Example 17, Table 50); conditions: 18 h, origin pig
Method: as §1, §2, §3
In a manner similar to that described in Example 8, antibacterial activity of the invention compound was determined. The bacterium used for the test was Pasteurella Kobe-6 (origin: pig, Pasteurella multocida).

[5] = Enterococcus Seriolicida KG86050
[6] = Enterococcus Seriolicida MS89060
[7] = Enterococcus Seriolicida MS89064
[8] = Enterococcus Seriolicida MS89066
[9] = Enterococcus Seriolicida MS89068
[10] = Enterococcus Seriolicida SE94-001
[11] = Enterococcus Seriolicida SE94-003
[12] = Enterococcus Seriolicida SE94-004
[13] = Enterococcus Seriolicida SE94-005

Structure (SMILES) | MIC (Pasteurella from fish) [µg/mL] | IC (Enterococcus from fish; Enterococcus Seriolicida HI) | IC (Enterococcus from fish; [5]) | IC (Enterococcus from fish; [6]) | IC (Enterococcus from fish; [7]) | IC (Enterococcus from fish; [8]) | IC (Enterococcus from fish; [9]) | IC (Enterococcus from fish; [10]) | MIC (Enterococcus from fish) [µg/mL] | IC (Enterococcus from fish; [11]) | IC (Enterococcus from fish; [12]) | IC (Enterococcus from fish; [13]) | MIC [1] [µg/mL] | MIC [2] [µg/mL] | MIC ([3]; MRSA strain 891179) [µg/mL] | MIC ([3]; MRSA strain 891185) [µg/mL] | MIC ([3]; MRSA strain 891187) [µg/mL] | MIC ([3]; MRSA strain 891192) [µg/mL] | MIC ([3]; MRSA strain 900048) [µg/mL] | MIC [4] [µg/mL] | other results
CC(Oc1cccc(Oc2ccc(Br)cc2F)c1)C(=O)C(C#N)c1ccc(Cl)c(Cl)c1 (stereo not drawn) [Compound No. 109, 4-[3-(4-bromo-2-fluorophenoxy)phenoxy]-2-(3,4-dichlorophenyl)-3-oxopentanonitrile] | 1 to 10 (≈ 1.91 to 19.1 µM) | ≤10 (10-1 µg/ml) | ≤10 (10-1 µg/ml) | ≤10 (10-1 µg/ml) | ≤10 (10-1 µg/ml) | ≤10 (10-1 µg/ml) | ≤10 (10-1 µg/ml) | ≤10 (10-1 µg/ml) | 1 to 10 (≈ 1.91 to 19.1 µM) | ≤10 (10-1 µg/ml) | ≤10 (10-1 µg/ml) | ≤10 (10-1 µg/ml) | 1 to 10 (≈ 1.91 to 19.1 µM) | ≤ 1 | 1 to 10 (≈ 1.91 to 19.1 µM) | 1 to 10 (≈ 1.91 to 19.1 µM) | 1 to 10 (≈ 1.91 to 19.1 µM) | 1 to 10 (≈ 1.91 to 19.1 µM) | 1 to 10 (≈ 1.91 to 19.1 µM) | 1 to 10 (≈ 1.91 to 19.1 µM) | MIC ([3]; MRSA strain 900056): 1 to 10 µg/mL (≈ 1.91 to 19.1 µM)
CC(Oc1cccc(Oc2ccc(Br)cc2F)c1)C(=O)C(C#N)c1cccc(Cl)c1 (stereo not drawn) [Compound No. 110, 4-[3-(4-bromo-2-fluorophenoxy)phenoxy]-2-(3-chlorophenyl)-3-oxopentanonitrile] | 10 to 100 (≈ 20.5 to 205 µM) | ≤10 (10-1 µg/ml) | ≤10 (10-1 µg/ml) | ≤10 (10-1 µg/ml) | ≤10 (10-1 µg/ml) | ≤10 (10-1 µg/ml) | ≤10 (10-1 µg/ml) | ≤10 (10-1 µg/ml) | 1 to 10 (≈ 2.05 to 20.5 µM) | ≤10 (10-1 µg/ml) | ≤10 (10-1 µg/ml) | ≤10 (10-1 µg/ml) | 1 to 10 (≈ 2.05 to 20.5 µM) | 1 to 10 (≈ 2.05 to 20.5 µM) | 1 to 10 (≈ 2.05 to 20.5 µM) | 1 to 10 (≈ 2.05 to 20.5 µM) | 1 to 10 (≈ 2.05 to 20.5 µM) | 1 to 10 (≈ 2.05 to 20.5 µM) | 1 to 10 (≈ 2.05 to 20.5 µM) | 10 to 100 (≈ 20.5 to 205 µM) | IC (Pasteurella from fish; Pasteurella piscicida KP94-04): ≤100 (MIC-equivalent values obtained at the succesive 2-fold dilution of the sample are 100-10 µg/ml); IC (Pasteurella from fish; Pasteurella piscicida KP94-05): ≤100 (MIC-equivalent values obtained at the succesive 2-fold dilution of the sample are 100-10 µg/ml); IC (Pasteurella from fish; Pasteurella piscicida KP94-06): ≤100 (MIC-equivalent values obtained at the succesive 2-fold dilution of the sample are 100-10 µg/ml); MIC ([3]; MRSA strain 900056): 1 to 10 µg/mL (≈ 2.05 to 20.5 µM)
CC(Oc1cc(Oc2ccc(C(F)(F)F)cc2Cl)ccc1[N+](=O)[O-])C(=O)C(C#N)c1ccc(Cl)cc1Cl (stereo not drawn) [Compound No. 116, 4-[5-(2-chloro-4-trifluoromethylphenoxy)-2-nitrophenoxy]-2-(2,4-dichlorophenyl)-3-oxopentanonitrile] | 10 to 100 (≈ 17.4 to 174 µM) | ≤10 (10-1 µg/ml) | ≤10 (10-1 µg/ml) | ≤10 (10-1 µg/ml) | ≤10 (10-1 µg/ml) | ≤10 (10-1 µg/ml) | ≤10 (10-1 µg/ml) | ≤10 (10-1 µg/ml) | 1 to 10 (≈ 1.74 to 17.4 µM) | ≤10 (10-1 µg/ml) | ≤10 (10-1 µg/ml) | ≤10 (10-1 µg/ml) | 1 to 10 (≈ 1.74 to 17.4 µM) | 1 to 10 (≈ 1.74 to 17.4 µM) | – | – | – | – | – | 1 to 10 (≈ 1.74 to 17.4 µM) | IC (Pasteurella from fish; Pasteurella piscicida KP94-04): ≤100 (MIC-equivalent values obtained at the succesive 2-fold dilution of the sample are 100-10 µg/ml); IC (Pasteurella from fish; Pasteurella piscicida KP94-05): ≤100 (MIC-equivalent values obtained at the succesive 2-fold dilution of the sample are 100-10 µg/ml); IC (Pasteurella from fish; Pasteurella piscicida KP94-06): ≤100 (MIC-equivalent values obtained at the succesive 2-fold dilution of the sample are 100-10 µg/ml)
CC(Oc1cc(Oc2ccc(C(F)(F)F)cc2Cl)ccc1[N+](=O)[O-])C(=O)C(C#N)C(=O)N1CCCC1 (stereo not drawn) [compound 134] | 10 to 100 (≈ 19 to 190 µM) | ≤100 (MIC-equivalent values obtained at the succesive 2-fold dilution of the sample are 100-10 µg/ml) | ≤100 (MIC-equivalent values obtained at the succesive 2-fold dilution of the sample are 100-10 µg/ml) | ≤100 (MIC-equivalent values obtained at the succesive 2-fold dilution of the sample are 100-10 µg/ml) | ≤100 (MIC-equivalent values obtained at the succesive 2-fold dilution of the sample are 100-10 µg/ml) | ≤100 (MIC-equivalent values obtained at the succesive 2-fold dilution of the sample are 100-10 µg/ml) | ≤100 (MIC-equivalent values obtained at the succesive 2-fold dilution of the sample are 100-10 µg/ml) | ≤100 (MIC-equivalent values obtained at the succesive 2-fold dilution of the sample are 100-10 µg/ml) | 10 to 100 (≈ 19 to 190 µM) | ≤100 (MIC-equivalent values obtained at the succesive 2-fold dilution of the sample are 100-10 µg/ml) | ≤100 (MIC-equivalent values obtained at the succesive 2-fold dilution of the sample are 100-10 µg/ml) | ≤100 (MIC-equivalent values obtained at the succesive 2-fold dilution of the sample are 100-10 µg/ml) | 10 to 100 (≈ 19 to 190 µM) | 10 to 100 (≈ 19 to 190 µM) | – | – | – | – | – | 10 to 100 (≈ 19 to 190 µM) | –
